The structures appear in SMILES notation.

The target in this assay is T1, Zinc finger protein mex-5 (Caenorhabditis elegans, UniProt Q9XUB2).
T1 sequence (Q9XUB2 whole entry): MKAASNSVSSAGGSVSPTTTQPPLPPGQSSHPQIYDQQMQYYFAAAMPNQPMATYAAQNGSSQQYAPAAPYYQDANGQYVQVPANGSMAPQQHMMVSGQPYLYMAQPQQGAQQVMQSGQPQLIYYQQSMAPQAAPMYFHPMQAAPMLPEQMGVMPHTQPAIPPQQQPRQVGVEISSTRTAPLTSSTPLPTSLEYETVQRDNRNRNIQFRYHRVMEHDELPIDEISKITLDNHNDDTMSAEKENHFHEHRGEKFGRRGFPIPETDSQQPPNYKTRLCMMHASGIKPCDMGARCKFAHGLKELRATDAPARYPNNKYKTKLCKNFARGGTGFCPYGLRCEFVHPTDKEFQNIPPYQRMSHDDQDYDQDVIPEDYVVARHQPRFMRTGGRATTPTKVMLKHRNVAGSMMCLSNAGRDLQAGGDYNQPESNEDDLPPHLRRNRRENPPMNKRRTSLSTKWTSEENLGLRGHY
The experiment in a line: MEX-5/TCR-2 RNA interaction inhibitors, dose response, biochemical, C. elegans, fluorescence polarization (AID 1960). (In general: Polarisation of emitted light reports the rotation of a fluorescent probe.)
As a reminder, the EC50 is the concentration giving half of the maximal effect. Read a high EC50 as a less potent agent. `O=C1NC(=O)N(CCc2ccccc2)C(=O)C1=CNNC(=O)c1ccccc1O` [2-hydroxy-N'-[(E)-[2,4,6-trioxo-1-(2-phenylethyl)-1,3-diazinan-5-ylidene]methyl]benzohydrazide] registered an EC50 of 201 µM.
Next, `COc1[nH]c(N=Cc2ccccc2)c(C#N)c1C#N` [2-methoxy-5-[(phenylmethylene)amino]-1H-pyrrole-3,4-dicarbonitrile]: 5.63 µM; `O=C1c2cccc3cccc(c23)C(=O)C1[N+](=O)[O-]` [2-nitro-3-oxidanyl-phenalen-1-one]: 9.23 µM.
The same measure for `C=CCOc1cccc(C2C(C(=O)c3cc4ccccc4o3)C(=O)C(=O)N2c2cc(C)on2)c1` (stereo not given) [3-(1-benzofuran-2-carbonyl)-4-hydroxy-1-(5-methyl-1,2-oxazol-3-yl)-2-(3-prop-2-enoxyphenyl)-2H-pyrrol-5-one]: 80.5 µM.
`Cc1cc(N2C(=O)C(=O)C(C(=O)c3cc4ccccc4o3)C2c2ccc([N+](=O)[O-])cc2)no1` (stereo not given) [3-(1-benzofuran-2-carbonyl)-4-hydroxy-1-(5-methyl-1,2-oxazol-3-yl)-2-(4-nitrophenyl)-2H-pyrrol-5-one] yielded an EC50 of 45.4 µM.
Next, `C=CCOc1cccc(C2C(C(=O)c3ccc(C)o3)C(=O)C(=O)N2c2nnc(C)s2)c1` (stereo not given) [3-(5-methylfuran-2-yl)carbonyl-1-(5-methyl-1,3,4-thiadiazol-2-yl)-4-oxidanyl-2-(3-prop-2-enoxyphenyl)-2H-pyrrol-5-one]: 210 µM; `C=CCOc1cccc(C2C(C(=O)c3ccc(C)o3)C(=O)C(=O)N2c2nccs2)c1` (stereo not given) [3-(5-methylfuran-2-yl)carbonyl-4-oxidanyl-2-(3-prop-2-enoxyphenyl)-1-(1,3-thiazol-2-yl)-2H-pyrrol-5-one]: 0.851 µM; `CCCOc1cccc(C2C(C(=O)c3ccco3)C(=O)C(=O)N2c2nnc(C)s2)c1` (stereo not given) [3-(furan-2-carbonyl)-4-hydroxy-1-(5-methyl-1,3,4-thiadiazol-2-yl)-2-(3-propoxyphenyl)-2H-pyrrol-5-one]: 82.7 µM.
Next, `C=CCOc1ccc(C2C(C(=O)c3ccco3)C(=O)C(=O)N2c2nnc(C)s2)cc1` (stereo not given) [3-(furan-2-carbonyl)-4-hydroxy-1-(5-methyl-1,3,4-thiadiazol-2-yl)-2-(4-prop-2-enoxyphenyl)-2H-pyrrol-5-one]: more than 300 µM.
Next, `Cc1nnc(N2C(=O)C(=O)C(C(=O)c3ccco3)C2c2cccc3ccccc23)s1` (stereo not given) [3-(furan-2-carbonyl)-4-hydroxy-1-(5-methyl-1,3,4-thiadiazol-2-yl)-2-naphthalen-1-yl-2H-pyrrol-5-one]: more than 300 µM.
On to `CSc1nnc(N2C(=O)C(=O)C(C(=O)c3ccco3)C2c2ccccc2)s1` (stereo not given) [3-(furan-2-carbonyl)-4-hydroxy-1-(5-methylsulfanyl-1,3,4-thiadiazol-2-yl)-2-phenyl-2H-pyrrol-5-one], for which the midpoint of the response, the EC50, lay at 76.6 µM.
The same measure for `O=C1C(=O)N(c2ncccn2)C(c2cccs2)C1C(=O)c1ccco1` (stereo not given) [3-(furan-2-carbonyl)-4-hydroxy-1-pyrimidin-2-yl-2-thiophen-2-yl-2H-pyrrol-5-one]: 31.5 µM; for `COc1ccc(C2C(C(=O)c3ccco3)C(=O)C(=O)N2c2nnc(C)s2)cc1` (stereo not given) [3-(furan-2-carbonyl)-4-hydroxy-2-(4-methoxyphenyl)-1-(5-methyl-1,3,4-thiadiazol-2-yl)-2H-pyrrol-5-one]: 216 µM; for `Cc1ccc(C2C(C(=O)c3ccco3)C(=O)C(=O)N2c2nnc(C)s2)cc1` (stereo not given) [3-(furan-2-carbonyl)-4-hydroxy-2-(4-methylphenyl)-1-(5-methyl-1,3,4-thiadiazol-2-yl)-2H-pyrrol-5-one]: more than 300 µM.
The same measure for `CSc1ccc(C2C(C(=O)c3ccco3)C(=O)C(=O)N2c2nnc(SC)s2)cc1` (stereo not given) [3-(furan-2-carbonyl)-4-hydroxy-2-(4-methylsulfanylphenyl)-1-(5-methylsulfanyl-1,3,4-thiadiazol-2-yl)-2H-pyrrol-5-one]: 16.4 µM; for `O=C1Nc2ccccc2C1=NNc1ccccc1` [3-(phenylhydrazo)-2-indolone]: 18.3 µM.
`N#CC1C(=N)C2=C(N3CCCCC3)CCCC2C1(C#N)C#N` (stereo not given) [3-Amino-4-piperidin-1-yl-5,6,7,7a-tetrahydro-indene-1,1,2-tricarbonitrile] registered an EC50 of 77.1 µM.
The same measure for `COc1ccc(N2C(=O)C(=Nc3ccccc3O)C(Cl)C2=O)cc1` (stereo not given) [3-Chloro-4-(2-hydroxy-phenylamino)-1-(4-methoxy-phenyl)-pyrrole-2,5-dione]: 24.5 µM; for `O=C1C(=Nc2ccccc2O)C(Cl)C(=O)N1c1ccccc1` (stereo not given) [3-Chloro-4-(2-hydroxy-phenylamino)-1-phenyl-pyrrole-2,5-dione]: 73 µM.
The molecule `O=c1c2ccccc2nc(N=NCc2ccc(O)cc2)n1O` [3-Hydroxy-2-{N'-[1-(4-hydroxy-phenyl)-meth-(E)-ylidene]-hydrazino}-3H-quinazolin-4-one] had a concentration giving a half-maximal response (EC50) of more than 300 µM.
Molecule `Cc1cc(CN=Nc2ccc([N+](=O)[O-])cn2)c(C)n1-c1cccc(C(=O)O)c1` [3-[2,5-dimethyl-3-[[(5-nitro-2-pyridinyl)hydrazinylidene]methyl]-1-pyrrolyl]benzoic acid] had an EC50 of 37.7 µM.
Regarding `O=NCc1cccn1-c1cccc(C(=O)O)c1` [3-[2-(hydroximinomethyl)pyrrol-1-yl]benzoic acid], the concentration giving a half-maximal response (EC50) was more than 300 µM.
The same measure for `CCOC(=O)c1c2ccc(OCC(=O)NN=Cc3ccc(Cl)cc3)cc2n2ccccc12` [3-[2-[2-[(4-chlorophenyl)methylidene]hydrazinyl]-2-oxoethoxy]-10-pyrido[1,2-a]indolecarboxylic acid ethyl ester]: 160 µM; for `Cc1[nH]n(C(N)=S)c(=O)c1N=Nc1cccc(C(=O)O)c1` [3-[(1-carbamothioyl-3-methyl-5-oxo-4H-pyrazol-4-yl)diazenyl]benzoic acid]: 22.7 µM.
As to `O=[N+]([O-])c1cc([CH+][N-]n2c(O)csc2=S)ccc1Cl` [3-[(4-chloranyl-3-nitro-phenyl)methylideneamino]-2-sulfanylidene-1,3-thiazolidin-4-one], the half-maximal effective concentration (EC50) worked out at 15.7 µM.
Molecule `Oc1ccc(C=Nn2c(O)csc2=S)c(O)c1O` [3-[[(E)-[2,3-bis(oxidanyl)-4-oxidanylidene-cyclohexa-2,5-dien-1-ylidene]methyl]amino]-2-sulfanylidene-1,3-thiazolidin-4-one] had an EC50 of 0.668 µM.
As to `N#CC1C(=N)Oc2ccc3ccc(O)cc3c2C1c1ccsc1` (stereo not given) [3-amino-9-hydroxy-1-(3-thienyl)-1H-benzo[f]chromene-2-carbonitrile], the half-maximal effective concentration (EC50) stood at 11 µM.
The same measure for `CCCCOc1c(Br)cc(CN=O)cc1OCC` [3-bromo-4-butoxy-5-ethoxy-benzaldoxime]: more than 300 µM; for `COc1ccccc1N1C(=O)C(=Nc2ccccc2O)C(Cl)C1=O` (stereo not given) [3-chloranyl-4-[(2-hydroxyphenyl)amino]-1-(2-methoxyphenyl)pyrrole-2,5-dione]: 8.19 µM; for `O=C1C=C(NNC(=O)c2sc3ccccc3c2Cl)CCC1` [3-chloranyl-N-[(3-oxidanylidenecyclohexylidene)amino]-1-benzothiophene-2-carboxamide]: 20.5 µM.
In turn, `CC(C)c1nnc(N2C(=O)C(=O)C(C(=O)c3cccs3)C2c2ccccc2)s1` (stereo not given) [3-hydroxy-1-(5-isopropyl-1,3,4-thiadiazol-2-yl)-5-phenyl-4-(2-thenoyl)-3-pyrrolin-2-one] displayed a half-maximal effective concentration (EC50) of 4.38 µM.
Next, `Cc1[nH]n(C(N)=S)c(=O)c1N=Nc1ccc(S(N)(=O)=O)cc1` [3-methyl-5-oxidanylidene-4-[(4-sulfamoylphenyl)diazenyl]-4H-pyrazole-1-carbothioamide]: 8.86 µM; `O=C1CC(=O)c2c(O)cc(O)c(O)c2C1=O` [4,5,7,8-tetrahydroxy-1,2-naphthoquinone]: 0.899 µM; `COc1cc(C2C3=C(CCCC3=O)OC(=N)C2C#N)cc(OC)c1OC(=O)N1CCOCC1` (stereo not given) [4-(2-amino-3-cyano-5-oxo-5,6,7,8-tetrahydro-4H-chromen-4-yl)-2,6-dimethoxyphenyl morpholine-4-carboxylate]: more than 300 µM.
With `COc1cc(C2C3=C(CCCC3=O)OC(=N)C2C#N)ccc1OC(=O)N1CCOCC1` (stereo not given) [4-(2-amino-3-cyano-5-oxo-5,6,7,8-tetrahydro-4H-chromen-4-yl)-2-methoxyphenyl morpholine-4-carboxylate], the EC50 is more than 300 µM.
For `N#CC1C(=N)OC2=C(C(=O)CCC2)C1c1ccc(OC(=O)N2CCOCC2)cc1` (stereo not given) [4-(2-amino-3-cyano-5-oxo-5,6,7,8-tetrahydro-4H-chromen-4-yl)phenyl morpholine-4-carboxylate], the EC50 is more than 300 µM.
Next, `COc1cc(C2NC(=S)N=C(C)C2C(=O)OC(C)C)ccc1OC(C)C` (stereo not given) [4-(3-methoxy-4-propan-2-yloxyphenyl)-6-methyl-2-sulfanylidene-3,4-dihydro-1H-pyrimidine-5-carboxylic acid propan-2-yl ester]: more than 300 µM; `O=C(O)c1ccc(NN=CC2=C(N3CCOCC3)C(=Cc3ccccc3)CC2)cc1` [4-[2-[[(3Z)-2-(4-morpholinyl)-3-(phenylmethylene)-1-cyclopentenyl]methylidene]hydrazinyl]benzoic acid]: 109 µM.
Consider `CC(=O)C1C(c2ccccc2)=NC(=O)NC1c1ccc(O)c(O)c1` (stereo not given) [4-[3,4-bis(oxidanyl)phenyl]-5-ethanoyl-6-phenyl-3,4-dihydro-1H-pyrimidin-2-one], for which a half-maximal response (EC50) required 43.4 µM.
Next, `Cc1ccc(-c2c(CCC(C)N=O)oc3ccc(Cl)cc23)o1` (stereo not given) [4-[5-chloro-3-(5-methyl-2-furanyl)-2-benzofuranyl]-2-butanone oxime]: more than 300 µM.

These data come from BindingDB's records for doi:10.7270/Q2D798VP (Broad Institute, 2009).
